Assay results taken from patent publication US9475775B2, “Benzazepine dicarboxamide compounds” (Hoffmann-La Roche Inc., priority 2015, dated 2016).

Columns and labels:
human TLR8 = human TLR8 (Homo sapiens (Human), UniProt Q9NR97); assay: HEK-Blue human TLR8 cells, NF-κB SEAP reporter assay; format: cell-based; details: stimulation for 20 hours
Text: (§1) For TLR8 and TLR7 activity testing, HEK-Blue human TLR8 or TLR7 cells (Invivogen, San Diego, Calif., USA) are used, respectively. These cells are designed for studying the stimulation of human TLR8 or TLR7 by monitoring the activation of NF-κB. A SEAP (secreted embryonic alkaline phosphatase) reporter gene is placed under the control of the IFN-b minimal promoter fused to five NF-κB and AP-1-binding sites. Therefore the reporter expression is regulated by the NF-κB promoter upon stimulation of human TLR8 or TLR7 for 20 hours. The cell culture supernatant SEAP reporter activity was determined using Quanti Blue kit (Invivogen, San Diego, Ca, USA) at a wavelength of 640 nm, a detection medium that turns purple/blue in the presence of alkaline phosphatase. EC50 values were determined using Activity Base analysis (ID Business Solution, Limited).

human TLR7 = human TLR7 (Homo sapiens (Human), UniProt Q9NYK1); assay: HEK-Blue human TLR7 cells, NF-κB SEAP reporter assay; format: cell-based; details: stimulation for 20 hours
Chain of human TLR7 (Q9NYK1 27-1049): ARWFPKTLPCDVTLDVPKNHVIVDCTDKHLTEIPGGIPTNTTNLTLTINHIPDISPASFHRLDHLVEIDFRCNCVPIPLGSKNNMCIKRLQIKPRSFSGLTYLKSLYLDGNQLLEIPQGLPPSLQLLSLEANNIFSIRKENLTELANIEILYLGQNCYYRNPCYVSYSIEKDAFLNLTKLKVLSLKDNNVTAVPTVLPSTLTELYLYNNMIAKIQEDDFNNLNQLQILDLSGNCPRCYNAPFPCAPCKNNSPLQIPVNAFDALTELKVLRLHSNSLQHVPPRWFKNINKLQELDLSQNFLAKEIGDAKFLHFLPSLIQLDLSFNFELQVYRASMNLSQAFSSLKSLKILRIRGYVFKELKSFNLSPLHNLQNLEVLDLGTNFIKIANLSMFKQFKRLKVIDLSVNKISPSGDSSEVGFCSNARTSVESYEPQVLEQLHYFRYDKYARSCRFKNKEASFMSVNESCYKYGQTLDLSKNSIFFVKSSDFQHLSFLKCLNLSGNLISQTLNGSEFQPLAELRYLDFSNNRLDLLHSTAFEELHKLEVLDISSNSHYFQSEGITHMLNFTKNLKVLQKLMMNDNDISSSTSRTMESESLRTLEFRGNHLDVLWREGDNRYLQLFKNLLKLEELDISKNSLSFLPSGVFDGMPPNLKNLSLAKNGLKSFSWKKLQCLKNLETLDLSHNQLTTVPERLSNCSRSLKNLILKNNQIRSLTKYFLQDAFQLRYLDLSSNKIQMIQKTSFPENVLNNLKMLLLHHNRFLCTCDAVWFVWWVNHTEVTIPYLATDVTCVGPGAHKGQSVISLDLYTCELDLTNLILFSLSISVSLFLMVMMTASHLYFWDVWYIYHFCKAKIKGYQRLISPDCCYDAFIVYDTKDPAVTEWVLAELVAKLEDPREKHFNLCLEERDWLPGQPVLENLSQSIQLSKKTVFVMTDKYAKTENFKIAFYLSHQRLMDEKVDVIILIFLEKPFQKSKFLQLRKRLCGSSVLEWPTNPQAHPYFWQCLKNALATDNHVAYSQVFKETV
Text: as §1

Chain of human TLR8 (Q9NR97 27-1041): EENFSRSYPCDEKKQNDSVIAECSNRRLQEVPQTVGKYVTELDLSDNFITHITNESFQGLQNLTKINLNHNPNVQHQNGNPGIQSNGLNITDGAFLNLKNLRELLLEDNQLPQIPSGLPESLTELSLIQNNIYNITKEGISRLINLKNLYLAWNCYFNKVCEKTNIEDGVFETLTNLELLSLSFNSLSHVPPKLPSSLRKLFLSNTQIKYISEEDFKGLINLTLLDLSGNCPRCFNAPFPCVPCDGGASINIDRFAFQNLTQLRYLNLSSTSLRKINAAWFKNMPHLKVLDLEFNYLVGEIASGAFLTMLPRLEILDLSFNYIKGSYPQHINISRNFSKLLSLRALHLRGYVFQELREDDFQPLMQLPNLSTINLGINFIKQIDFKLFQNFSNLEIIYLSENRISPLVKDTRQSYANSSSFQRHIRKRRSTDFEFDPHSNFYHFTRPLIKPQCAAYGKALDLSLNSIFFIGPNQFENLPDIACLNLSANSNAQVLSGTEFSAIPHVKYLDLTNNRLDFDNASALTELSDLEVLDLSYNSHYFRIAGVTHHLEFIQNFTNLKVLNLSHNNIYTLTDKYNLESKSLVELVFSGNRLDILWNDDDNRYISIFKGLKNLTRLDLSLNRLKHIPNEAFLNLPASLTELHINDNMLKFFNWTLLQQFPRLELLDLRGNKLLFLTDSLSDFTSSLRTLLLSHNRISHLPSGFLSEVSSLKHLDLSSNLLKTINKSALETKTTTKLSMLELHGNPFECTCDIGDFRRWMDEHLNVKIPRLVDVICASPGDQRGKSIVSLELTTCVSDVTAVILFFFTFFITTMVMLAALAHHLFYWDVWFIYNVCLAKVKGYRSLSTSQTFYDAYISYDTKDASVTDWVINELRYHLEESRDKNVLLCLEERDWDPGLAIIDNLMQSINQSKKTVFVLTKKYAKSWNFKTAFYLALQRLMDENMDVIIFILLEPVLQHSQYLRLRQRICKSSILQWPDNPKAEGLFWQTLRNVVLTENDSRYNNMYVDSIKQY

| Compound | EC50 (human TLR8) | EC50 (human TLR7) |
| --- | --- | --- |
| CCCN(CCC)C(=O)C1=Cc2ccc(C(=O)Nc3cncnc3)cc2N=C(N)C1 [Example 2, 2-Amino-N4,N4-dipropyl-N8-pyrimidin-5-yl-3H-1-benzazepine-4,8-dicarboxamide] | 1 nM | > 100000 nM |
| CCCN(CCC)C(=O)C1=Cc2ccc(C(=O)Nc3ccc(CN)nc3)cc2N=C(N)C1 [Example 5, 2-Amino-N8-[6-(aminomethyl)-3-pyridyl]-N4,N4-dipropyl-3H-1-benzazepine-4,8-dicarboxamide] | 3 nM | > 100000 nM |
| CCCN(CCC)C(=O)C1=Cc2ccc(C(=O)Nc3cncc(CO)c3)cc2N=C(N)C1 [Example 6, 2-Amino-N8-[5-(hydroxymethyl)-3-pyridyl]-N4,N4-dipropyl-3H-1-benzazepine-4,8-dicarboxamide] | 8 nM | > 100000 nM |
| CCCN(CCC)C(=O)C1=Cc2ccc(C(=O)Nc3ccc(CO)nc3)cc2N=C(N)C1 [Example 7, 2-Amino-N8-[6-(hydroxymethyl)-3-pyridyl]-N4,N4-dipropyl-3H-1-benzazepine-4,8-dicarboxamide] | 15 nM | > 100000 nM |
| CCCN(CCC)C(=O)C1=Cc2ccc(C(=O)Nc3cccc(S(C)(=O)=O)c3)cc2N=C(N)C1 [Example 8, 2-Amino-N8-(3-methylsulfonylphenyl)-N4,N4-dipropyl-3H-1-benzazepine-4,8-dicarboxamide] | 10 nM | 44000 nM |
| CCCN(CCC)C(=O)C1=Cc2ccc(C(=O)Nc3cncs3)cc2N=C(N)C1 [Example 9, 2-Amino-N4,N4-dipropyl-N8-thiazol-5-yl-3H-1-benzazepine-4,8-dicarboxamide] | 3 nM | > 100000 nM |
| CCCN(CCC)C(=O)C1=Cc2ccc(C(=O)Nc3nccs3)cc2N=C(N)C1 [Example 11, 2-Amino-N4,N4-dipropyl-N8-thiazol-2-yl-3H-1-benzazepine-4,8-dicarboxamide] | 29 nM | > 100000 nM |
| CCCN(CCC)C(=O)C1=Cc2ccc(C(=O)Nc3cncn3C)cc2N=C(N)C1 [Example 12, 2-Amino-N8-(3-methylimidazol-4-yl)-N4,N4-dipropyl-3H-1-benzazepine-4,8-dicarboxamide] | 4 nM | > 100000 nM |
| CCCN(CCC)C(=O)C1=Cc2ccc(C(=O)Nc3cccc(C(=O)N4CCCC4)c3)cc2N=C(N)C1 [Example 15, 2-Amino-N4,N4-dipropyl-N8-[3-(pyrrolidine-1-carbonyl)phenyl]-3H-1-benzazepine-4,8-dicarboxamide] | 2 nM | > 100000 nM |
| CCCN(CCC)C(=O)C1=Cc2ccc(C(=O)Nc3cncc(C(=O)N4CCCC4)c3)cc2N=C(N)C1 [Example 16, 2-Amino-N4,N4-dipropyl-N8-[5-(pyrrolidine-1-carbonyl)-3-pyridyl]-3H-1-benzazepine-4,8-dicarboxamide] | 14 nM | > 100000 nM |
| CCCN(CCC)C(=O)C1=Cc2ccc(C(=O)Nc3cccc(CCN)c3)cc2N=C(N)C1 [Example 17, 2-Amino-N8-[3-(2-aminoethyl)phenyl]-N4,N4-dipropyl-3H-1-benzazepine-4,8-dicarboxamide] | 6 nM | > 100000 nM |
| CCCN(CCC)C(=O)C1=Cc2ccc(C(=O)Nc3cncc(C)c3)cc2N=C(N)C1 [Example 18, 2-Amino-N8-(5-methyl-3-pyridyl)-N4,N4-dipropyl-3H-1-benzazepine-4,8-dicarboxamide] | 2 nM | 34000 nM |
| CCCN(CCC)C(=O)C1=Cc2ccc(C(=O)Nc3cncc(F)c3)cc2N=C(N)C1 [Example 20, 2-Amino-N8-(5-fluoro-3-pyridyl)-N4,N4-dipropyl-3H-1-benzazepine-4,8-dicarboxamide] | 3 nM | 46000 nM |
| CCCN(CCC)C(=O)C1=Cc2ccc(C(=O)Nc3cccnc3C)cc2N=C(N)C1 [Example 21, 2-Amino-N8-(2-methyl-3-pyridyl)-N4,N4-dipropyl-3H-1-benzazepine-4,8-dicarboxamide] | 21 nM | > 100000 nM |
| CCCN(CCC)C(=O)C1=Cc2ccc(C(=O)Nc3ccc(C)nc3)cc2N=C(N)C1 [Example 22, 2-Amino-N8-(6-methyl-3-pyridyl)-N4,N4-dipropyl-3H-1-benzazepine-4,8-dicarboxamide] | 3 nM | > 100000 nM |
| CCCN(CCC)C(=O)C1=Cc2ccc(C(=O)Nc3cc(C)cc(C)c3)cc2N=C(N)C1 [Example 23, 2-Amino-N8-(3,5-dimethylphenyl)-N4,N4-dipropyl-3H-1-benzazepine-4,8-dicarboxamide] | 1 nM | > 100000 nM |
| CCCN(CCC)C(=O)C1=Cc2ccc(C(=O)Nc3ccc(CN)cc3)cc2N=C(N)C1 [Example 24, 2-Amino-N8-[4-(aminomethyl)phenyl]-N4,N4-dipropyl-3H-1-benzazepine-4,8-dicarboxamide] | 9 nM | > 100000 nM |
| CCCN(CCC)C(=O)C1=Cc2ccc(C(=O)Nc3ccc(CCN)cc3)cc2N=C(N)C1 [Example 25, 2-Amino-N8-[4-(2-aminoethyl)phenyl]-N4,N4-dipropyl-3H-1-benzazepine-4,8-dicarboxamide] | 18 nM | > 100000 nM |
| CCCN(CCCO)C(=O)C1=Cc2ccc(C(=O)Nc3cccc(C)c3)cc2N=C(N)C1 [Example 26, 2-Amino-N4-(3-hydroxypropyl)-N8-(m-tolyl)-N4-propyl-3H-1-benzazepine-4,8-dicarboxamide] | 2 nM | > 100000 nM |
| CCCN(CCC)C(=O)C1=Cc2ccc(C(=O)Nc3cccc(CC)c3)cc2N=C(N)C1 [Example 29, 2-Amino-N8-(3-ethylphenyl)-N4,N4-dipropyl-3H-1-benzazepine-4,8-dicarboxamide] | 1 nM | > 100000 nM |
| CCCN(CCC)C(=O)C1=Cc2ccc(C(=O)Nc3cccc(C(F)(F)F)c3)cc2N=C(N)C1 [Example 31, 2-Amino-N4,N4-dipropyl-N8-[3-(trifluoromethyl)phenyl]-3H-1-benzazepine-4,8-dicarboxamide] | 5 nM | > 100000 nM |
| CCCN(CCC)C(=O)C1=Cc2ccc(C(=O)Nc3cncc(CN)c3)cc2N=C(N)C1 [Example 33, 2-Amino-N8-[5-(aminomethyl)-3-pyridyl]-N4,N4-dipropyl-3H-1-benzazepine-4,8-dicarboxamide] | 2 nM | > 100000 nM |
| CCCN(CCC)C(=O)C1=Cc2ccc(C(=O)Nc3ccnnc3)cc2N=C(N)C1 [Example 34, 2-Amino-N4,N4-dipropyl-N8-pyridazin-4-yl-3H-1-benzazepine-4,8-dicarboxamide] | 2 nM | > 100000 nM |
| CCCN(CCC)C(=O)C1=Cc2ccc(C(=O)Nc3ccc(OCC)nc3)cc2N=C(N)C1 [Example 35, 2-Amino-N8-(6-ethoxy-3-pyridyl)-N4,N4-dipropyl-3H-1-benzazepine-4,8-dicarboxamide] | 1 nM | > 100000 nM |

Other lines, results leading:

| EC50 (human TLR8) | EC50 (human TLR7) | Compound |
| --- | --- | --- |
| 1 nM | 80800 nM | CCCN(CCC)C(=O)C1=Cc2ccc(C(=O)Nc3cccnc3)cc2N=C(N)C1 [Example 1, 2-Amino-N4,N4-dipropyl-N8-(3-pyridyl)-3H-1-benzazepine-4,8-dicarboxamide] |
| 13 nM | 70100 nM | CCCN(CCC)C(=O)C1=Cc2ccc(C(=O)Nc3ccncc3)cc2N=C(N)C1 [Example 3, 2-Amino-N4,N4-dipropyl-N8-(4-pyridyl)-3H-1-benzazepine-4,8-dicarboxamide] |
| 7 nM | > 100000 nM | CCCN(CCC)C(=O)C1=Cc2ccc(C(=O)Nc3ccccc3)cc2N=C(N)C1 [Example 4, 2-Amino-N8-phenyl-N4,N4-dipropyl-3H-1-benzazepine-4,8-dicarboxamide] |
| 2 nM | > 100000 nM | CCCN(CCC)C(=O)C1=Cc2ccc(C(=O)Nc3ccc(Cl)cc3)cc2N=C(N)C1 [Example 10, 2-Amino-N8-(4-chlorophenyl)-N4,N4-dipropyl-3H-1-benzazepine-4,8-dicarboxamide] |
| 7 nM | > 100000 nM | CCCN(CCC)C(=O)C1=Cc2ccc(C(=O)Nc3ccc(F)cc3)cc2N=C(N)C1 [Example 13, 2-Amino-N8-(4-fluorophenyl)-N4,N4-dipropyl-3H-1-benzazepine-4,8-dicarboxamide] |
| 1 nM | > 100000 nM | CCCN(CCC)C(=O)C1=Cc2ccc(C(=O)Nc3cccc(C)c3)cc2N=C(N)C1 [Example 14, 2-Amino-N8-(m-tolyl)-N4,N4-dipropyl-3H-1-benzazepine-4,8-dicarboxamide] |
| 5 nM | > 100000 nM | CCCN(CCC)C(=O)C1=Cc2ccc(C(=O)Nc3cccc(F)c3)cc2N=C(N)C1 [Example 19, 2-Amino-N8-(3-fluorophenyl)-N4,N4-dipropyl-3H-1-benzazepine-4,8-dicarboxamide] |
| 5 nM | 28000 nM | CCCN(CCC)C(=O)C1=Cc2ccc(C(=O)Nc3ccccc3C)cc2N=C(N)C1 [Example 27, 2-Amino-N8-(o-tolyl)-N4,N4-dipropyl-3H-1-benzazepine-4,8-dicarboxamide] |
| 1 nM | > 100000 nM | CCCN(CCC)C(=O)C1=Cc2ccc(C(=O)Nc3ccc(C)cc3)cc2N=C(N)C1 [Example 28, 2-Amino-N4,N4-dipropyl-N8-(p-tolyl)-3H-1-benzazepine-4,8-dicarboxamide] |
| 2 nM | > 100000 nM | CCCN(CCC)C(=O)C1=Cc2ccc(C(=O)Nc3cccc(OC)c3)cc2N=C(N)C1 [Example 30, 2-Amino-N8-(3-methoxyphenyl)-N4,N4-dipropyl-3H-1-benzazepine-4,8-dicarboxamide] |
| 2 nM | > 100000 nM | CCCN(CCC)C(=O)C1=Cc2ccc(C(=O)Nc3cccc(Cl)c3)cc2N=C(N)C1 [Example 32, 2-Amino-N8-(3-chlorophenyl)-N4,N4-dipropyl-3H-1-benzazepine-4,8-dicarboxamide] |
